The results in this text go back to patent publication US10000467B2, “Cyanine compounds” (Pierce Biotechnology, Inc., priority 2012, dated 2018).

Assay [1] has as its system protein disulphide isomerase (PDI). Nature of the assay: Immunofluorescence in U2OS cells, mouse-anti-PDI primary antibody. Type of assay: cell-based, human. Particulars: FIGS. 17-19; GAM conjugates at 2.5×-15× molar excess. Here is the method: (§1) The inventive compounds and commercial dye were evaluated for immunofluorescence in cell based assays using the following protocol. Plates containing U2OS cells (human osteosarcoma cell line) were fixed in 4% paraformaldehyde in PBS/0.1% Triton X-100 for 15 min at room temperature. The cells were then […] with 2% BSA in PBS/0.1% Triton X-100 for 15 min at room temperature. Negative controls contain only 2% BSA/PBS-0.1% Triton-X100 blocker. Diluted primary antibodies, mouse-anti-protein disulphide isomerase (PDI) or rabbit-anti-HDAC2, diluted in 2% BSA/PBS-0.1% Triton-X100 were added to the plates and incubated for one hour at room temperature. Negative controls contain only 2% BSA/PBS-0.1% Triton-X100 blocker. The plates were washed 3×100 μl with PBS. Based on the calculated protein concentrations, the conjugates made in Example 22 were diluted to 4 μg/ml in PBS/0.1% Triton X-100 and added to the plates (50 μl/well) and incubated one hour in the dark at room temperature. After incubation, the […] antibody solution was removed from the plates, and the plates were washed 3×100 μl with PBS. One hundred μl of 0.1 μg/ml Hoechst dye in PBS was added per well. The plates were then scanned on an ArrayScan® Plate Reader for imaging and quantitation.

In another assay the test system is HDAC2. Nature of the assay: Immunofluorescence in U2OS cells, rabbit-anti-HDAC2 primary antibody. Type of assay: cell-based, human. Here is the method:
as §1

Setting [2] is: FIGS. 20-22, GAR conjugates purified with 200 μl of resin/mg of protein.

Take Alexa Fluor 647: the “Fluorescence intensity (Mean Total Intensity)” value (in assay [1]; in the assay with HDAC2 (setting [2])) was “highest binding intensity at 2.5× dye molar excess” each time. Besides, the Quenching entry in assay [1] was “significant quenching above 2.5× molar excess”; in the assay on HDAC2 (FIGS. 14-16, GAR conjugates at 2.5×-15× molar excess), “significant quenching at high molar excesses”; in the assay on HDAC2 (setting [2]), “significant quenching above 2.5× molar excess”.
